Measured values reported in PMC9208756, “A dual-target herbicidal inhibitor of lysine biosynthesis” (eLife, 2022).
Several values for one entry are separate records, joined by “and”; a condition that tells them apart may be missing. Equal entries are not always repeated. Where two headings read alike, the source gives them in different places. One block for each compound: values may come before it.

What was measured:
AtDHDPS2 [1] = biological target: T1, AtDHDPS2 (Arabidopsis thaliana, UniProt Q9FVC8); assay: DHDPS enzyme inhibition assay, recombinant AtDHDPS2; assay type: biochemical
T1 construct: made in house
T1 sequence (Q9FVC8 40-365): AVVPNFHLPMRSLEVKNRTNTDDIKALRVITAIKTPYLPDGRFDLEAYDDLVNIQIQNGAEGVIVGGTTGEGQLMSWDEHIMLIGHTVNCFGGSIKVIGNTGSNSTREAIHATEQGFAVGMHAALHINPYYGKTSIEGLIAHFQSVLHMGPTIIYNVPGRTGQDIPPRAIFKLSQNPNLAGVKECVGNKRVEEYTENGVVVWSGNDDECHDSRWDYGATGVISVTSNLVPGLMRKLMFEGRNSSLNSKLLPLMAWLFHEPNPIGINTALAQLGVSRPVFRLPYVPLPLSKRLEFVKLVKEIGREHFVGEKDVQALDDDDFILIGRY

AtDHDPR1 = biological target: T2, AtDHDPR1 (Arabidopsis thaliana, UniProt O80574); assay: DHDPR enzyme inhibition assay, recombinant AtDHDPR1; assay type: biochemical
T2 construct: made in house
T2 sequence (O80574 52-347): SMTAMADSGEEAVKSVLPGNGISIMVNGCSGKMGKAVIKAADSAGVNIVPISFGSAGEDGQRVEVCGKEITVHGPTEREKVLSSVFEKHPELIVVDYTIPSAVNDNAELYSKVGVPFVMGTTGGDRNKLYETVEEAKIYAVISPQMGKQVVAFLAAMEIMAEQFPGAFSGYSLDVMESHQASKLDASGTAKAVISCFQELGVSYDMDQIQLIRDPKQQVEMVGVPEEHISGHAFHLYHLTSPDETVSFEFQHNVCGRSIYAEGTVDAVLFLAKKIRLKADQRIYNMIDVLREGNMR
Protocol: (§1) Briefly, reaction mixtures were incubated at 30℃ for 12 min before a second 60-s incubation following the addition of excess E. coli DHDPS (51 µg ml^−1) for generation of the DHDP substrate. The relevant DHDPR isoform (2.6 µg ml^−1) was added to initiate the reaction, and substrate turnover measured spectrophotometrically at 340 nm via the associated oxidation of the cofactor NADPH. Experiments were performed in technical triplicates.

AtDHDPR = assay: DHDPR enzyme inhibition, comparisons over both isoforms; assay type: biochemical, Arabidopsis thaliana
Protocol: as §1

AtDHDPR2 = biological target: T3, AtDHDPR2 (Arabidopsis thaliana, UniProt Q8LB01); assay: DHDPR enzyme inhibition assay, recombinant AtDHDPR2; assay type: biochemical
T3 construct: made in house
T3 sequence (Q8LB01 54-349): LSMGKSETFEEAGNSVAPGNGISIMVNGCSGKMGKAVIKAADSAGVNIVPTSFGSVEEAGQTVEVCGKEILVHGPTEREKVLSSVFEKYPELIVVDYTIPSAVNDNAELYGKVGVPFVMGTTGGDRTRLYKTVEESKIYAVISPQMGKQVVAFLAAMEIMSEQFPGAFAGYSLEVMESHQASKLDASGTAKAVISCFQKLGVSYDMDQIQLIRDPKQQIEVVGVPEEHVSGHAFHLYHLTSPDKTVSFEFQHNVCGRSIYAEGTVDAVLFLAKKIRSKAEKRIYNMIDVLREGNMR
Protocol: as §1

AtDHDPS1 = biological target: T4, AtDHDPS1 (Arabidopsis thaliana, UniProt Q9LZX6); assay: DHDPS enzyme inhibition assay, recombinant AtDHDPS1; assay type: biochemical
T4 construct: made in house
T4 sequence (Q9LZX6 40-365): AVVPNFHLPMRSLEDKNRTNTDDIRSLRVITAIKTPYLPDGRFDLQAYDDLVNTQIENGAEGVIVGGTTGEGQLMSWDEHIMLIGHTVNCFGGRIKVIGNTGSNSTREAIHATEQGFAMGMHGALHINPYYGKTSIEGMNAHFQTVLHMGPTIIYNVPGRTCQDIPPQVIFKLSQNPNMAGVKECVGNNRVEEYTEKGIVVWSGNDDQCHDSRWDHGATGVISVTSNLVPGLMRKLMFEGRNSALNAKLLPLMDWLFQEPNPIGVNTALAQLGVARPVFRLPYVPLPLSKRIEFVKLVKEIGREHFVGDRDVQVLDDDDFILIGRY

AtDHDPS2 [2] = biological target: T1, AtDHDPS2; set-up: method as in Soares da Costa et al., 2021; conditions: previously reported; ref Soares da Costa et al., 2021; cited from earlier work
Lolium rigidum = assay: Herbicidal activity, pre-emergence treatment of soil-grown plants; assay type: in vivo
Protocol: . Pre-wet seed-raising soil (pH 5.5) (Biogro, Dandenong South, VIC, Australia) supplemented with 0.22% (wt/wt) Nutricote N12 Micro 140 day-controlled release fertiliser (Yates, Sydney, NSW, Australia) was used. Ten seeds were sown at a depth of 0.5 cm into pots of pre-wet soil, following stratification at 4℃ for 21 days in the dark. Compounds dissolved in DMSO were diluted to working concentrations in H2O containing 0.01% (vol/vol) Agral (Syngenta, North Ryde, NSW, Australia) to a final DMSO concentration of 2% (vol/vol). Treatments were given by pipetting 2.0 ml of MBDTA-2, vehicle control or positive control (chlorosulfuron PESTANAL [Sigma-Aldrich, North Ryde, NSW, Australia]) directly onto seeds upon sowing and on each of the subsequent 2 days. Plants were grown in a chamber at 22℃ under a 16 hr light (100 µmol m^−2 s^−1)/8 hr dark schedule for 14 days before photos were taken. Roots and shoots were separated prior to drying at 70℃ for 72 hr. Experiments were performed in biological triplicates.

[3] = [HBDTA] 0.000125 M, replicates 1-3
[4] = [HBDTA-2] 0.000125 M, replicates 1-3
[5] = [HBDTA-2] 0.0005 M, replicates 1-3
[6] = [MBDTA-2] 0.000125 M, limiting substrate and cofactor, replicates 1-3
[7] = 1200 mg l^−1, three pre-emergence treatments, 14 days, vs vehicle
[8] = Treated, 1200 mg l^−1, biological triplicates

SMILES: O=C(O)CN1C(=O)S/C(=C\c2ccc(O)cc2)C1=O [HBDTA, (Z)-2-(5-(4-hydroxybenzylidene)-2,4-dioxothiazolidin-3-yl)acetic acid]
remaining activity at 125 µM (AtDHDPS2 [1]; [3]): 37%
IC50 (AtDHDPS2 [1]; recombinant enzyme): 105 ± 1.04 µM
remaining activity at 125 µM (AtDHDPR1; [4]): 83.9%
remaining activity at 250 µM (AtDHDPR1; [HBDTA-2] 0.00025 M, replicates 1-3): 8.06%
remaining activity at 500 µM (AtDHDPR1; [5]): 0%
IC50 (AtDHDPR1; substrate and cofactor at limiting concentrations, read-out: IC50 against AtDHDPR1): 169 ± 0.92 µM
fold less potent at the DHDPR target site relative to MBDTA-2 (AtDHDPR; ratio of IC50 values): > 18 fold
remaining activity at 125 µM (AtDHDPR2; [4]): 65.7%
remaining activity at 500 µM (AtDHDPR2; [5]): 0%
IC50 (AtDHDPR2; substrate and cofactor at limiting concentrations, read-out: IC50 against AtDHDPR2): 155 ± 0.9 µM
remaining activity at 125 µM (AtDHDPS1; [3]): 31.1%
IC50 (AtDHDPS1; recombinant enzyme): 100 ± 0.95 µM

fold greater IC50 with excess vs limiting substrate and cofactor (AtDHDPR1; AtDHDPR1): 10 fold
IC50 (AtDHDPR1; IC50 against AtDHDPR1, excess substrate and nucleotide cofactor, 10-fold above KM): 72.7 ± 1.07 µM
IC50 (AtDHDPR1; IC50 against AtDHDPR1, substrate and cofactor at limiting concentrations): 6.92 ± 0.92 µM
remaining activity at 125 µM (AtDHDPR1; [6]): 9.11%
remaining activity at 125 µM (AtDHDPR1; [MBDTA-2] 0.000125 M, saturating substrate and cofactor, replicates 1-3): 7.04%
mechanism of inhibition (AtDHDPR; from IC50 shift with excess substrate and cofactor): competitive inhibitor
fold greater IC50 with excess vs limiting substrate and cofactor (AtDHDPR2; AtDHDPR2): 8 fold
IC50 (AtDHDPR2; IC50 against AtDHDPR2, excess substrate and nucleotide cofactor, 10-fold above KM): 69.5 ± 1.06 µM
IC50 (AtDHDPR2; IC50 against AtDHDPR2, substrate and cofactor at limiting concentrations): 8.58 ± 1.19 µM
remaining activity at 125 µM (AtDHDPR2; [6]): 0%
remaining activity at 250 µM (AtDHDPR2; [MBDTA-2] 0.00025 M, limiting substrate and cofactor, replicates 1-3): 0%
remaining activity at 500 µM (AtDHDPR2; [MBDTA-2] 0.0005 M, saturating substrate and cofactor, replicates 1-3): 0.507%
SMILES: COc1ccc(/C=C2\SC(=O)N(CC(=O)O)C2=O)cc1 [MBDTA-2, (Z)-2-(5-(4-methoxybenzylidene)-2,4-dioxothiazolidin-3-yl)acetic acid]
IC50 (AtDHDPS2 [2]): 64 ± 1 µM
effect on germination and growth (Lolium rigidum; 1200 mg l^−1): inhibition of plant germination and growth
fold reduction in root dry weight (Lolium rigidum; [7]): ~ 2 fold
fold reduction in shoot dry weight (Lolium rigidum; [7]): ~ 5 fold
fold reduction in shoot fresh weight (Lolium rigidum; [7]): ~ 4 fold
Dry Weight, Roots (Lolium rigidum; [8]): 7 mg and 10 mg
Dry Weight, Shoots (Lolium rigidum; [8]): 10 mg and 8 mg
Fresh Weight, Roots (Lolium rigidum; [8]): 44 mg and 33 mg and 58 mg
Fresh Weight, Shoots (Lolium rigidum; [8]): 71 mg and 107 mg and 109 mg
